Target: biotinylated Avi-POLθ[2-894] (Homo sapiens (Human), UniProt O75417)
Experiment: POLθ ATPase assay (ADP-Glo)
Settings: POLθ ATPase, ADP-Glo; n=2; read-out: Biochemical ATPase ADPGlo IC50

Chain of biotinylated Avi-POLθ[2-894] (O75417 2-894): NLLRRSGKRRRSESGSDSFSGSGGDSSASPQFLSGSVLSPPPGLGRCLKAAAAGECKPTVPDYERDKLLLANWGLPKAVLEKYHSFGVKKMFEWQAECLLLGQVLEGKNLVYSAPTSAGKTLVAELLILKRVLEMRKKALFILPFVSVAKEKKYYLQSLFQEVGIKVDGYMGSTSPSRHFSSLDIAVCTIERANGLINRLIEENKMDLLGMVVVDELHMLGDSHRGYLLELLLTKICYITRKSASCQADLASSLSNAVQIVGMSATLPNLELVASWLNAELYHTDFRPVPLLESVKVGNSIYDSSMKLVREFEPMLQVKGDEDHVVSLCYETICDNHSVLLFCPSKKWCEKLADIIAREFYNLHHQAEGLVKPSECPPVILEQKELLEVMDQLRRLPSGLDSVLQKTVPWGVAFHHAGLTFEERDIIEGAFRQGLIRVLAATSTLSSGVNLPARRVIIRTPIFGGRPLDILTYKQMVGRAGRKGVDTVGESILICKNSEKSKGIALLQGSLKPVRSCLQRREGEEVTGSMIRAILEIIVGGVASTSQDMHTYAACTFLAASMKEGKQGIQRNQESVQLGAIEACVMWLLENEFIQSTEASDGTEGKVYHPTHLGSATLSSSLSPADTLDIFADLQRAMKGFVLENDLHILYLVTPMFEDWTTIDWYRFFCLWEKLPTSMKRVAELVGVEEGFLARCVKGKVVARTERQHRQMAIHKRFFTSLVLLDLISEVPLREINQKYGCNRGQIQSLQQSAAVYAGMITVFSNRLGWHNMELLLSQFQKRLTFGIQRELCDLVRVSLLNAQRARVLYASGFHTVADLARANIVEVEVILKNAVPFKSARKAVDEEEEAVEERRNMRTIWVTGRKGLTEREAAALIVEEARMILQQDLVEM

Row | SMILES | IC50 [nM]
1 | COc1cnc(Cl)cc1-c1cc(C)ncc1C(=O)Nc1nc2c(s1)CN(C(=O)c1ccc(C(F)(F)F)nc1OC)C2C (single isomer, unassigned) [Example 1037, (R or S)-2′-chloro-5′-methoxy-N-(5-(2-methoxy-6-(trifluoromethyl)nicotinoyl)-4-methyl-5,6-dihydro-4H-pyrrolo[3,4-d]thiazol-2-y])-6-methyl-[4,4′-bipyridine]-3-carboxamide] | 15 to 50
2 | COc1cnc(Cl)cc1-c1cc(C)ncc1C(=O)Nc1nc2c(s1)C(C)N(C(=O)c1ccc(C(F)(F)F)nc1OC)C2 (single isomer, unassigned) [Example 1047, (S or R)-2′-chloro-5′-methoxy-N-(5-(2-methoxy-6-(trifluoromethyl)nicotinoyl)-6-methyl-5,6-dihydro-4H-pyrrolo[3,4-d]thiazol-2-yl)-6-methyl-[4,4′-bipyridine]-3-carboxamide] | 150 to 900

Same assay, conditions: n=2; read-out: Biochemical ATPase ADPGlo IC50

Row | SMILES | IC50 [nM]
3 | COc1cn2cncc2cc1-c1cc(C)ncc1C(=O)Nc1nc2c(s1)CN(C(=O)[C@H]1C[C@H](OC(F)(F)F)C1)C2 [Example 22, 4-(6-methoxyimidazo[1,5-a]pyridin-7-yl)-6-methyl-N-(5-((1r,3r)-3-(trifluoromethoxy)cyclobutane-1-carbonyl)-5,6-dihydro-4H-pyrrolo[3,4-d]thiazol-2-yl)nicotinamide] | 15 to 50
4 | COc1cnc(Cl)cc1-c1cc(C)ncc1C(=O)Nc1nc2c(s1)CN(C(=O)c1nccn1C)C2 [Example 23, 2′-chloro-5′-methoxy-6-methyl-N-(5-(1-methyl-1H-imidazole-2-carbonyl)-5,6-dihydro-4H-pyrrolo[3,4-d]thiazol-2-yl)-[4,4′-bipyridine]-3-carboxamide] | 15 to 50
5 | COc1cnc(Cl)cc1-c1cc(C)ncc1C(=O)Nc1nc2c(s1)CN(C(=O)C1CN(CC(F)F)C1)C2 [Example 24, 2′-chloro-N-(5-(1-(2,2-difluoroethyl)azetidine-3-carbonyl)-5,6-dihydro-4H-pyrrolo[3,4-d]thiazol-2-yl)-5′-methoxy-6-methyl-[4,4′-bipyridine]-3-carboxamide] | 15 to 50
6 | COc1cnc(Cl)cc1-c1cc(C)ncc1C(=O)Nc1nc2c(s1)CN(C(=O)c1cncn1C)C2 [Example 30, 2′-chloro-5′-methoxy-6-methyl-N-(5-(1-methyl-1H-imidazole-5-carbonyl)-5,6-dihydro-4H-pyrrolo[3,4-d]thiazol-2-yl)-[4,4′-bipyridine]-3-carboxamide] | 15 to 50
7 | COc1cnc(Cl)cc1-c1cc(C)ncc1C(=O)Nc1nc2c(s1)CN(C(=O)c1cccnn1)C2 [Example 33, 2′-chloro-5′-methoxy-6-methyl-N-(5-(pyridazine-3-carbonyl)-5,6-dihydro-4H-pyrrolo[3,4-d]thiazol-2-yl)-[4,4′-bipyridine]-3-carboxamide] | 1 to 15
8 | COc1cnc(Cl)cc1-c1cc(C)ncc1C(=O)Nc1nc2c(s1)CN(C(=O)c1ncc(C)cn1)C2 [Example 34, 2′-chloro-5′-methoxy-6-methyl-N-(5-(5-methylpyrimidine-2-carbonyl)-5,6-dihydro-4H-pyrrolo[3,4-d]thiazol-2-yl)-[4,4′-bipyridine]-3-carboxamide] | 1 to 15
9 | COc1cnc(Cl)cc1-c1cc(C)ncc1C(=O)Nc1nc2c(s1)CN(C(=O)c1cnccn1)C2 [Example 41, 2′-chloro-5′-methoxy-6-methyl-N-(5-(pyrazine-2-carbonyl)-5,6-dihydro-4H-pyrrolo[3,4-d]thiazol-2-yl)-[4,4′-bipyridine]-3-carboxamide] | 1 to 15
10 | COc1cnc(Cl)cc1-c1cc(C)ncc1C(=O)Nc1nc2c(s1)CN(C(=O)C1CC(N(C)C)C1)C2 (stereo not drawn) [Example 43, 2′-chloro-N-(5-(3-(dimethylamino)cyclobutane-1-carbonyl)-5,6-dihydro-4H-pyrrolo[3,4-d]thiazol-2-yl)-5′-methoxy-6-methyl-[4,4′-bipyridine]-3-carboxamide] | 150 to 900
11 | COc1cnc(Cl)cc1-c1cc(C)ncc1C(=O)Nc1nc2c(s1)CN(C(=O)c1ccnn1CC(F)(F)F)C2 [Example 46, 2′-chloro-5′-methoxy-6-methyl-N-(5-(1-(2,2,2-trifluoroethyl)-1H-pyrazole-5-carbonyl)-5,6-dihydro-4H-pyrrolo[3,4-d]thiazol-2-yl)-[4,4′-bipyridine]-3-carboxamide] | 1 to 15
12 | COc1cnc(Cl)cc1-c1cc(C)ncc1C(=O)Nc1nc2c(s1)CN(C(=O)c1ncn(C)n1)C2 [Example 50, 2′-chloro-5′-methoxy-6-methyl-N-(5-(1-methyl-1H-1,2,4-triazole-3-carbonyl)-5,6-dihydro-4H-pyrrolo[3,4-d]thiazol-2-yl)-[4,4′-bipyridine]-3-carboxamide] | 1 to 15
13 | COc1cnc(Cl)cc1-c1cc(C)ncc1C(=O)Nc1nc2c(s1)CN(C(=O)c1ccn(CC(F)F)n1)C2 [Example 51, 2′-chloro-N-(5-(1-(2,2-difluoroethyl)-1H-pyrazole-3-carbonyl)-5,6-dihydro-4H-pyrrolo[3,4-d]thiazol-2-yl)-5′-methoxy-6-methyl-[4,4′-bipyridine]-3-carboxamide] | 1 to 15
14 | COc1cnc(Cl)cc1-c1cc(C)ncc1C(=O)Nc1nc2c(s1)CN(C(=O)c1nn(C(F)F)cc1Cl)C2 [Example 55, 2′-chloro-N-(5-(4-chloro-1-(difluoromethyl)-1H-pyrazole-3-carbonyl)-5,6-dihydro-4H-pyrrolo[3,4-d]thiazol-2-yl)-5′-methoxy-6-methyl-[4,4′-bipyridine]-3-carboxamide] | 1 to 15
15 | COc1cnc(Cl)cc1-c1cc(C)ncc1C(=O)Nc1nc2c(s1)CN(C(=O)c1c(C(F)F)nn(C)c1F)C2 [Example 59, 2′-chloro-N-(5-(3-(difluoromethyl)-5-fluoro-1-methyl-1H-pyrazole-4-carbonyl)-5,6-dihydro-4H-pyrrolo[3,4-d]thiazol-2-yl)-5′-methoxy-6-methyl-[4,4′-bipyridine]-3-carboxamide] | 1 to 15
16 | COc1cnc(Cl)cc1-c1cc(C)ncc1C(=O)Nc1nc2c(s1)CN(C(=O)c1ncon1)C2 [Example 60, N-(5-(1,2,4-oxadiazole-3-carbonyl)-5,6-dihydro-4H-pyrrolo[3,4-d]thiazol-2-yl)-2′-chloro-5′-methoxy-6-methyl-[4,4′-bipyridine]-3-carboxamide] | 1 to 15
17 | COc1cnc(Cl)cc1-c1cc(C)ncc1C(=O)Nc1nc2c(s1)CN(C(=O)c1cn(C)nc1C(F)(F)F)C2 [Example 61, 2′-chloro-5′-methoxy-6-methyl-N-(5-(1-methyl-3-(trifluoromethyl)-1H-pyrazole-4-carbonyl)-5,6-dihydro-4H-pyrrolo[3,4-d]thiazol-2-yl)-[4,4′-bipyridine]-3-carboxamide] | 1 to 15
18 | CCn1cc(C(=O)N2Cc3nc(NC(=O)c4cnc(C)cc4-c4cc(Cl)ncc4OC)sc3C2)cn1 [Example 62, 2′-chloro-N-(5-(1-ethyl-1H-pyrazole-4-carbonyl)-5,6-dihydro-4H-pyrrolo[3,4-d]thiazol-2-yl)-5′-methoxy-6-methyl-[4,4′-bipyridine]-3-carboxamide] | 15 to 50
19 | COc1cnc(Cl)cc1-c1cc(C)ncc1C(=O)Nc1nc2c(s1)CN(C(=O)c1nn(C)cc1C)C2 [Example 65, 2′-chloro-N-(5-(1,4-dimethyl-1H-pyrazole-3-carbonyl)-5,6-dihydro-4H-pyrrolo[3,4-d]thiazol-2-yl)-5′-methoxy-6-methyl-[4,4′-bipyridine]-3-carboxamide] | 1 to 15
20 | CCn1ccc(C(=O)N2Cc3nc(NC(=O)c4cnc(C)cc4-c4cc(Cl)ncc4OC)sc3C2)n1 [Example 69, 2′-chloro-N-(5-(1-ethyl-1H-pyrazole-3-carbonyl)-5,6-dihydro-4H-pyrrolo[3,4-d]thiazol-2-yl)-5′-methoxy-6-methyl-[4,4′-bipyridine]-3-carboxamide] | 1 to 15
21 | COc1cnc(Cl)cc1-c1cc(C)ncc1C(=O)Nc1nc2c(s1)CN(C(=O)c1ncccc1O)C2 [Example 71, 2′-chloro-N-(5-(3-hydroxypicolinoyl)-5,6-dihydro-4H-pyrrolo[3,4-d]thiazol-2-yl)-5′-methoxy-6-methyl-[4,4′-bipyridine]-3-carboxamide] | 1 to 15
22 | COc1cnc(Cl)cc1-c1cc(C)ncc1C(=O)Nc1nc2c(s1)CN(C(=O)c1cccc(OC(F)F)n1)C2 [Example 72, 2′-chloro-N-(5-(6-(difluoromethoxy)picolinoyl)-5,6-dihydro-4H-pyrrolo[3,4-d]thiazol-2-yl)-5′-methoxy-6-methyl-[4,4′-bipyridine]-3-carboxamide] | 1 to 15
23 | COc1cnc(Cl)cc1-c1cc(C)ncc1C(=O)Nc1nc2c(s1)CN(C(=O)c1ccnn1C(C)C)C2 [Example 75, 2′-chloro-N-(5-(1-isopropyl-1H-pyrazole-5-carbonyl)-5,6-dihydro-4H-pyrrolo[3,4-d]thiazol-2-yl)-5′-methoxy-6-methyl-[4,4′-bipyridine]-3-carboxamide] | 1 to 15
24 | COc1cnc(Cl)cc1-c1cc(C)ncc1C(=O)Nc1nc2c(s1)CN(C(=O)c1c(C)nn(C)c1C)C2 [Example 76, 2′-chloro-5′-methoxy-6-methyl-N-(5-(1,3,5-trimethyl-1H-pyrazole-4-carbonyl)-5,6-dihydro-4H-pyrrolo[3,4-d]thiazol-2-yl)-[4,4′-bipyridine]-3-carboxamide] | 1 to 15
25 | COc1cnc(Cl)cc1-c1cc(C)ncc1C(=O)Nc1nc2c(s1)CN(C(=O)c1ncn(C(C)C)n1)C2 [Example 77, 2′-chloro-N-(5-(1-isopropyl-1H-1,2,4-triazole-3-carbonyl)-5,6-dihydro-4H-pyrrolo[3,4-d]thiazol-2-yl)-5′-methoxy-6-methyl-[4,4′-bipyridine]-3-carboxamide] | 15 to 50
26 | COc1cnc(Cl)cc1-c1cc(C)ncc1C(=O)Nc1nc2c(s1)CN(C(=O)c1cnn(C3CC3)c1)C2 [Example 80, 2′-chloro-N-(5-(1-cyclopropyl-1H-pyrazole-4-carbonyl)-5,6-dihydro-4H-pyrrolo[3,4-d]thiazol-2-yl)-5′-methoxy-6-methyl-[4,4′-bipyridine]-3-carboxamide] | 1 to 15
27 | COc1cnc(Cl)cc1-c1cc(C)ncc1C(=O)Nc1nc2c(s1)CN(C(=O)c1cnn(CC(F)(F)F)c1)C2 [Example 83, 2′-chloro-5′-methoxy-6-methyl-N-(5-(1-(2,2,2-trifluoroethyl)-1H-pyrazole-4-carbonyl)-5,6-dihydro-4H-pyrrolo[3,4-d]thiazol-2-yl)-[4,4′-bipyridine]-3-carboxamide] | 15 to 50

— patent US20250230171A1 (MOMA Therapeutics, Inc., priority 2023, published 2025)
